The subject of data set [1] is MDA-MB-435 cells. As to the kind of experiment: cell morphology of MDA-MB-435 cells expressing shRNA (DIC microscopy). In kind it is cell-based, human. The following applies: MDA-MB-435 cells cultured on plastic dishes. An excerpt: (§1) Left panel: Loss of invasive ability of MDA-MB-435 cells by downregulation of C43. MDA-MB-435 cells expressing Luciferase shRNA control, C43 shRNA-2 and -3 were examined by the 3D invasion assay after 8 days. […] MDA-MB-435 cells expressing Luciferase shRNA shRNA, C43 shRNA-2 and -3 cultured on plastic dishes were observed under inverted microscopy with differential interference contrast (DIC).

Data set [2] relates to MDA-MB-435 cells. Description: cell proliferation of MDA-MB-435 cells expressing shRNA. In kind it is cell-based, human. The following applies: MDA-MB-435 cells in culture.
From the text: as §1
(§2) As summarized in FIG. 1, 2×10^6 MDA-MB-435 cancer cells expressing either C43 shRNA or luciferase shRNA control were orthotopically injected into mammary tissue of nu/nu immunodeficient mice. Tumor growth was measured with calipers twice a week. Tumor size was determined using the formula: (tumor size=tumor diameter(×)square root of tumor diameter(÷)2). […] In contrast to in vivo tumor growth, downregulation of C43 had no effect on cancer MDA-MB-435 cell proliferation in tissue culture (not shown), emphasizing the unique role of C43 on protease-independent aspects of cell invasion and tumor progression.

Data set [3] has as its system C43. As to the kind of experiment: shRNA effect on endogenous C43 expression, real time RT PCR in MDA-MB-435 cells. It is filed as cell-based, human. The following applies: retroviral shRNA delivery. The procedure: A) Overexpresison of C43 enhanced cell migration. COS-1 cells and MCF-7 cells transfected with vector control (1 & 4), C43 (2 & 5) or MT1-MMP (3 & 6, positive control) cDNAs were evaluated by a Transwell Chamber migration assay after 6 hours. The cells were fixed and migratory cells were counted under microscopy with 20× objective. Ten fields were examined for each transfected cells. Each bar represents the mean±SE. B) Enhanced cell migration in MCF-7 cells expressing C43-GFP chimera. Minimally invasive human breast cancer MCF-7 cells stably transfected with GFP control and C43-GFP chimeric cDNA were mixed with type I collagen and dotted onto a 96-well plate. […] Cell migration was determined under microscopy. […]
Small interfering oligonucleotides specific for either C43 or luciferase (control) to express short hairpin RNA (shRNA) were designed using an online software system (Block-iT RNAi Designer; Invitrogen) for mammalian RNA interference. Specific 21-nucleotide sequences spanning nucleotides […] of the human C43 gene (see FIG. 2: SEQ ID NO: 1) and nucleotides 103-123 of luciferase from firefly Pyrocoelia pectoralis as a control were synthesized by Operon Biotechnologies, Inc. Annealed double stranded oligonucleotides were cloned into the RNAi-Ready pSIREN-Retra Q vector (Clontech). […]

In data set [4] the test system is MDA-MB-435 cells. As to the kind of experiment: 3D invasion assay, MDA-MB-435 cells expressing shRNA. It is filed as cell-based, human. The following applies: 3D invasion assay after 8 days, vs Luciferase shRNA control.
From the text: as §1
The following methodology permits the detection of cancer cell invasion into a collagen matrix and the inhibitory activity of anti-cancer drugs. This assay is useful in identifying pharmacologic agents (drugs) that interfere with cancer progression. […] Invading cancer cells leaving the perimeter of the original collagen droplet are readily visualized extending into the surrounding collagen matrix after 18 h incubation. Both qualitative and quantitative analyses are performed microscopically. The invasive ability of cancer cells (cells outside the original droplet), as well as the effect of pharmacologic agents on the cancer cell invasion, can be determined microscopically. The effect of pharmacologic agents on invasion of cancer cells is determined by counting invading cells in the presence versus the absence of pharmacologic agents. […] This assay will be readily adaptable for high throughput screening of libraries of compounds that may be useful for cancer treatment. […]

Data set [5] concerns C43. Description: C43 expression by real time RT PCR in MDA-MB-231 cells. It is filed as cell-based, human.
Data set [6] concerns C43. Description: C43 expression by real time RT PCR in MCF-7 cells. In kind it is cell-based, human. The following applies: MCF-7 cells treated vs untreated, FIG. 17A. The procedure:
(§3) MCF-7 cells were left untreated or treated with an inhibitor of DNA methyltransferase, […] (5-aza-dC). Expression of C43 was monitored by a real time RT PCR approach and cell migration ability was determined by a transwell chamber migration assay.

A further data set concerns MDA-MB-231 cells. As to the kind of experiment: transwell chamber migration assay, MDA-MB-231 cells. It is filed as cell-based, human.
Another data set deals with MCF-7 cells. Description: transwell chamber migration assay, MCF-7 cells. It is filed as cell-based, human. The following applies: FIG. 17B. The procedure:
as §3

The test system of a further data set is MDA-MB-435 cancer cells. As to the kind of experiment: orthotopic implantation of MDA-MB-435 cells expressing shRNA into immunodeficient mice. It is filed as in vivo, nu/nu immunodeficient mice.
From the text: FIG. 1 depicts tumor growth and survival curves comparing the effect of C43 shRNA (SEQ ID NO: 2) (FIG. 1A) and control luciferase shRNA (FIG. 1B) on tumor appearance, progression, and survival following orthotopic implantation of MDA-MB-435 breast cancer cells into immunodeficient mice.
as §2

The subject of data set [7] is C43. As to the kind of experiment: Northern blot analysis of C43 in HT1080 cells. It is filed as cell-based, human. The following applies: FIG. 11A. An excerpt: Total RNAs of MCF-7 cells, HT1080 or HT1080 cells treated with Con A were probed with p^32-labeled C43 probe. A single 9.5 kb mRNA transcript corresponding to C43 was detected (arrowhead). Con A enhances C43 expression in HT1080 cells. B) Expression of C43 in transfected COS-1 cells: COS-1 cells transfected with vector or C43-Myc chimera were examined by Western blotting using anti-Myc antibody. C43 was detected as a 150 kDa protein band along with degradation products.

For data set [8], the system named is HT1080 and/or human breast cancer MDA-MB-231 cell. As to the kind of experiment: 3D invasion assay, positive controls. It is filed as cell-based. The following applies: positive controls in culture medium, HT1080 and/or MDA-MB-231 cells. How it is done:
HT1080 cells and/or human breast cancer MDA-MB-231 cells (4×10^7/ml) mixed with type I collagen (1.5 mg/ml at final) are dispensed into the cell-holding wells in invasion assay plates (2 ul/well, optimum volume) using the liquid handling system at 4° C. working temperature to prevent the collagen from solidifying within the liquid handling system. After dotting, the plate is inserted in an incubator chamber at 37° C. for 15 min followed by the addition of type I collagen to cover the gelled cell aggregates. […] Images are acquired from transmission (phase contrast) and fluorescence (DAPI) sources by an external light shutter device that gathers two images per time point in time-lapse sequences. […] Data analysis will be performed using NIS-Element imaging software (Nikon) based on pre-determined criteria.
The following steps will be performed to screen the compound library targeting cancer cell migration/invasion using the automated 3D invasion HTS system: 1) Cell plating: HT1080 cells and/or human breast cancer MDA-MB-231 cells are used for selecting inhibitory compounds because these cells display invasive ability and represent mesenchymal cancer cells. […] Images acquired by an automated Nikon inverted microscope (TE2000s) equipped with a motorized stage (Prior Scientific) are then analyzed using the NIS-Elements software (Nikon). […]

Data set [9] relates to human breast cancer MDA-MB-231 cells. Description: 3D invasion assay with well-established inhibitory compounds. It is filed as cell-based. The following applies: data not shown. An excerpt: To increase the throughput as well as to standardize and automate the readout using imaging software, we have designed and tooled a 96-well plate with a 2.1 mm3 pit in the center of each well. This tooled plate restricts the cell/matrix mixture to an identical pit (size and location) within each well, thus permitting automated microscopic imaging of cell invasion (FIG. 19). To test if imaging acquisition and data analysis can be automated, we have employed a motorized stage (Prior Scientific, Inc.) installed on the existing Nikon TE2000s inverted microscope. The automated microscopy system is controlled by the NIS-Elements imaging software (Nikon) for imaging acquisition and data analysis. Using a 10× objective, we have shown that it takes 6 minutes to scan the entire 96 well plate. To quantitatively analyze cells that invade into the matrix, using both phase contrast and nuclear-stained images is optimal.
To establish the efficacy of the assay for screening libraries, we have tested the effect of well-established inhibitory compounds on cell invasion. […] Moreover, this 3D invasion assay is simple, precise, easy to replicate, and has multiple applications.

With “C43 shRNA-2: C43 shRNA sequence GTGGAAGACCATATTGAATAT, nt 1104”, in the data set on MDA-MB-435 cells [1], the cell morphology result was “Change of cell morphology”. In addition, in the data set with MDA-MB-435 cells [2], the cell proliferation result is “does not alter”. For the same molecule, the “endogenous C43 expression” value with C43 [3] is reported as “significantly decrease”. Besides, the cell invasive ability result in the data set on MDA-MB-435 cells [4] is given as “loss of cell invasive ability”.

As to `Nc1ncn([C@H]2C[C@H](O)[C@@H](CO)O2)c(=O)n1` [5-aza-dC, a-aza-deoxycytined], the C43 expression result in the data set on C43 [5] is “No effect”. In the data set on C43 [6], the “endogenous C43 expression” value is listed as “increased”. Also, the results for the cell migration result with MDA-MB-231 cells and in the data set with MCF-7 cells were “No effect” and “enhanced”, respectively.

With “C43 shRNA: 21-nucleotide C43 shRNA CCTCTCCATCCATCATACATT spanning nucleotides 1735-1757 of SEQ ID NO: 1 (chemistry not given here; listed as Homo sapiens)”, the cell proliferation entry with MDA-MB-435 cells [2] was “no effect”. In addition, the “tumor appearance and progression” value in the data set on MDA-MB-435 cancer cells (2×10^6 MDA-MB-435 cells orthotopically injected into mammary tissue, vs luciferase shRNA control, FIG. 1A) is recorded as “delayed”. Further, in the data set on MDA-MB-435 cancer cells (orthotopic MDA-MB-435, vs luciferase shRNA control mice, FIG. 1B), the survival entry is “prolonged”.

Consider Concanavalin A [Con A], for which, in the data set on C43 [7], the C43 expression result is “enhances”.

As to “C43 shRNA-3: C43 shRNA sequence GCCTCTCCATCCATCATACATT, nt 1997”, the cell morphology result in the data set with MDA-MB-435 cells [1] is recorded as “Change of cell morphology”. Also, the cell proliferation result in the data set with MDA-MB-435 cells [2] was “does not alter”. In addition, the “endogenous C43 expression” value with C43 [3] was “significantly decrease”. In addition, the cell invasive ability result with MDA-MB-435 cells [4] is on record as “loss of cell invasive ability”.

Turning to `COc1cccc(-c2cc(=O)c3ccccc3o2)c1N` [PD98059], the cell invasion result in data set [8] is reported as “block”. The “inhibition of cell invasion” value in data set [9] was “dose-dependent inhibition”.

For the origin of these results see patent publication US8900851B2, “Multi-well platform” (The Research Foundation for the State University of New York, priority 2008, dated 2014).
